In the kinase profiling compilation of Christmann-Franck et al. (2016):

Tests used:
Experiment in all cases: radiometric filter-binding kinase assay
AURKB (human) = AURKB (human) (UniProt Q96GD4)
BRSK2 (human) = BRSK2 (human) (UniProt Q8IWQ3)
CAMKK2 (human) = CAMKK2 (human) (UniProt Q96RR4)
CHEK1 (human) = CHEK1 (human) (UniProt O14757)
CLK2 (human) = CLK2 (human) (UniProt P49760)
CSNK2A1 (human) = CSNK2A1 (human) (UniProt P68400)
CaMK1 (human) = CaMK1 (human) (UniProt Q14012)
DAPK1 (human) = DAPK1 (human) (UniProt P53355)
DYRK1A (human) = DYRK1A (human) (UniProt Q13627)
DYRK3 (human) = DYRK3 (human) (UniProt O43781)
EPHB2 (human) = EPHB2 (human) (UniProt P29323)
GCK (human) = GCK (human) (UniProt Q12851)
HIPK1 (human) = HIPK1 (human) (UniProt Q86Z02)
HIPK2 (human) = HIPK2 (human) (UniProt Q9H2X6)
IGF1R (human) = IGF1R (human) (UniProt P08069)
JAK2 JH1 JH2 (human) = JAK2 JH1 JH2 (human) (UniProt O60674)
LCK (mouse) = conditions: accession and sequence are those of the human protein
MAPK10 (human) = MAPK10 (human) (UniProt P53779)
MAPK13 (human) = MAPK13 (human) (UniProt O15264)
MAPK8 (human) = MAPK8 (human) (UniProt P45983)
MAPKAPK5 (human) = MAPKAPK5 (human) (UniProt Q8IW41)
MARK3 (human) = MARK3 (human) (UniProt P27448)
MINK1 (human) = MINK1 (human) (UniProt Q8N4C8)
MKNK1 (human) = MKNK1 (human) (UniProt Q9BUB5)
[1] = system: PAK2 (human), Q13177 [T402E]
PHKG1 (human) = PHKG1 (human) (UniProt Q16816)
PIM3 (human) = PIM3 (human) (UniProt Q86V86)
ROCK2 (rat) = conditions: accession and sequence are those of the human protein
[2] = system: SGK1 (human), O00141 [S422D]
SRPK1 (human) = SRPK1 (human) (UniProt Q96SB4)
STK3 (human) = STK3 (human) (UniProt Q13188)
TBK1 (human) = TBK1 (human) (UniProt Q9UHD2)
YES1 (human) = YES1 (human) (UniProt P07947)
FGFR1 (human) = FGFR1 (human) (UniProt P11362)
MAPK11 (human) = MAPK11 (human) (UniProt Q15759)

CHEK1 (human), sequence (O14757 whole entry, looked up): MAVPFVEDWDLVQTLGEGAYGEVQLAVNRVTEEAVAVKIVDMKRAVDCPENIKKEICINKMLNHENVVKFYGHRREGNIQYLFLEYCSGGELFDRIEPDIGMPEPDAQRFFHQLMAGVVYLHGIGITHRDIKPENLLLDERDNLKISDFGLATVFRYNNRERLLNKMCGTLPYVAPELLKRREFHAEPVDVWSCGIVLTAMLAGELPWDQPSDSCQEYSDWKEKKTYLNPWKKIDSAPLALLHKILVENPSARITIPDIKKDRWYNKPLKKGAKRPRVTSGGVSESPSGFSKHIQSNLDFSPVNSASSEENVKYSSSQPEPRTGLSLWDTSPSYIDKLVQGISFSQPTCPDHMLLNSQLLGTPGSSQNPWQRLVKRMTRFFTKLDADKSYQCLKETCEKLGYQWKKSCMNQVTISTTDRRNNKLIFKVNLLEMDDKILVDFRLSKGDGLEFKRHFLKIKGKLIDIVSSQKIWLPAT
PHKG1 (human), sequence (Q16816 whole entry, looked up): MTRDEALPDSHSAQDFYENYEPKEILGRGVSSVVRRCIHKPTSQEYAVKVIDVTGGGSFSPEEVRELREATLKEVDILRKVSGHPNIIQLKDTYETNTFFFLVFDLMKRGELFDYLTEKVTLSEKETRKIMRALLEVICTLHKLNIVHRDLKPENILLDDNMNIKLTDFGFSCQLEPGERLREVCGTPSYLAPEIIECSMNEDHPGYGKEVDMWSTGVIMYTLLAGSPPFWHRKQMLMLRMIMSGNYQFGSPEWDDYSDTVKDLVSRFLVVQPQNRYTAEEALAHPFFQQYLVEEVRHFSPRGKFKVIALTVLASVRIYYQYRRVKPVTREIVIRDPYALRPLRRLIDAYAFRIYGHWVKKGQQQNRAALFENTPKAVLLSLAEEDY
DAPK1 (human), sequence (P53355 whole entry, looked up): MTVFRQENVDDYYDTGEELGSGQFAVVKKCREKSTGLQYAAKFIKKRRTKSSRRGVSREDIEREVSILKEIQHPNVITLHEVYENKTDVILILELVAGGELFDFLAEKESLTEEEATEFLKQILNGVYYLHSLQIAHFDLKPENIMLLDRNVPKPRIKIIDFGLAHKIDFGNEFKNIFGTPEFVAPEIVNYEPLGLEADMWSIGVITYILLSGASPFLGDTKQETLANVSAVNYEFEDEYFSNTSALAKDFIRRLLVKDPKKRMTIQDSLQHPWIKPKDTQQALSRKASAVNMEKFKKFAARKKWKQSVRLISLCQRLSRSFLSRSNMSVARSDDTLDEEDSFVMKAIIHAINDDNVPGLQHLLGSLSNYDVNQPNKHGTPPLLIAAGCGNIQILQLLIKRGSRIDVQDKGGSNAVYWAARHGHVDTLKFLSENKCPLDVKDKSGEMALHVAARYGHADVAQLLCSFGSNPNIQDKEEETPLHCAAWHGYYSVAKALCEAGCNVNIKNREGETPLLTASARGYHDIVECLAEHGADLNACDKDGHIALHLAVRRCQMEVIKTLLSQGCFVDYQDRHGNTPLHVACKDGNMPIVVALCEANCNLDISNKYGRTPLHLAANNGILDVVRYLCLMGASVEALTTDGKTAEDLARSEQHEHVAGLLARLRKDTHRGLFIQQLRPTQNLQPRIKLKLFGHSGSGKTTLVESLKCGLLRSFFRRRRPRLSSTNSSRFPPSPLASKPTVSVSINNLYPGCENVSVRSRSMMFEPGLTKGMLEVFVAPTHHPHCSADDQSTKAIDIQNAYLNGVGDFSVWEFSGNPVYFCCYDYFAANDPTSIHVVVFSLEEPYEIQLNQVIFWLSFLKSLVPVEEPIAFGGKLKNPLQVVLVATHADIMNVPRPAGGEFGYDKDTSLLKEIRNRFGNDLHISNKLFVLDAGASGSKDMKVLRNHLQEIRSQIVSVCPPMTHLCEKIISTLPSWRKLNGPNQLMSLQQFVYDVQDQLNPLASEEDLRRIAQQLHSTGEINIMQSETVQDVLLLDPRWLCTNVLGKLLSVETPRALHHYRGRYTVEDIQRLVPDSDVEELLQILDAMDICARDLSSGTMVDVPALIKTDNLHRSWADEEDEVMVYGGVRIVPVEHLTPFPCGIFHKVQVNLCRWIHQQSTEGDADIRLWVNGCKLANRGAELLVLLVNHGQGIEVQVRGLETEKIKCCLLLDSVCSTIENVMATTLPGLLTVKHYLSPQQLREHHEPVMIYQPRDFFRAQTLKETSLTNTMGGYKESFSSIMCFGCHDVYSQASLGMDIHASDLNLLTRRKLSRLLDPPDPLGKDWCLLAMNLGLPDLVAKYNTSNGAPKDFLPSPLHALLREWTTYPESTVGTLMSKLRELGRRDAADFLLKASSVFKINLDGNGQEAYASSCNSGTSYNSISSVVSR
MAPK10 (human), sequence (P53779 whole entry, looked up): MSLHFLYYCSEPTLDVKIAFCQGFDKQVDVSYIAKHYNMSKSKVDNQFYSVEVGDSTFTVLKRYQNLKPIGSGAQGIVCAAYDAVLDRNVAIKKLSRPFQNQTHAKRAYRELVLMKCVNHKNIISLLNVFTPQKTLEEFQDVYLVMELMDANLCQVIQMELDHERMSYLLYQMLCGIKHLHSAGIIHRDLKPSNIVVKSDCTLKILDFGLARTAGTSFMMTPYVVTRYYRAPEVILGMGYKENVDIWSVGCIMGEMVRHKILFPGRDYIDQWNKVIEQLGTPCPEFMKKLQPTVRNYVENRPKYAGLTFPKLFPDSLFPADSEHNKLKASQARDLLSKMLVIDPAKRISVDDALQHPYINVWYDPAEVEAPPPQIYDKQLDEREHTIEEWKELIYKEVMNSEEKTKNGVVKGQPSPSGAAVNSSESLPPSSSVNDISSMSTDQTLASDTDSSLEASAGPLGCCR
AURKB (human), sequence (Q96GD4 whole entry, looked up): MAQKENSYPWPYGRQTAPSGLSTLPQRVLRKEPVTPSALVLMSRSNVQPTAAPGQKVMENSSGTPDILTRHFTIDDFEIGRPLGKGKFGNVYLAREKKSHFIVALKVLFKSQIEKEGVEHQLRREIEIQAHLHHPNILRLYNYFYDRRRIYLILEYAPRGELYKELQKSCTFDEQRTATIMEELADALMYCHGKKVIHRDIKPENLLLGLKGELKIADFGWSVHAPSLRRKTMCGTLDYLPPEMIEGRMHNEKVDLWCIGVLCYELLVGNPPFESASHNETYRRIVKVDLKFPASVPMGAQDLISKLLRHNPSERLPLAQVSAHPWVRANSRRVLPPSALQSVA
MAPK8 (human), sequence (P45983 whole entry, looked up): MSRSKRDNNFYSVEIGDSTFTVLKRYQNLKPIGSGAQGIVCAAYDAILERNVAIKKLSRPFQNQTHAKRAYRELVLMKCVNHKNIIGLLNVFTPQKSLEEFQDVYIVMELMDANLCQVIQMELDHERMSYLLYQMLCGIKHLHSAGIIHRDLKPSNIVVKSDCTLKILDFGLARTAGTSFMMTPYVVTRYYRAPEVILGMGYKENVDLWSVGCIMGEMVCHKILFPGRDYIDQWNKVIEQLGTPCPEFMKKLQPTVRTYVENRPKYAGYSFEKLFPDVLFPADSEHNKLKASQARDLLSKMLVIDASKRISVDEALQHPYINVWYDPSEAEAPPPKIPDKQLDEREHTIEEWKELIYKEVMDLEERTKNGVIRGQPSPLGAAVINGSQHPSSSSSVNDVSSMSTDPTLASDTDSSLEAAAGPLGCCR
EPHB2 (human), sequence (P29323 whole entry, looked up): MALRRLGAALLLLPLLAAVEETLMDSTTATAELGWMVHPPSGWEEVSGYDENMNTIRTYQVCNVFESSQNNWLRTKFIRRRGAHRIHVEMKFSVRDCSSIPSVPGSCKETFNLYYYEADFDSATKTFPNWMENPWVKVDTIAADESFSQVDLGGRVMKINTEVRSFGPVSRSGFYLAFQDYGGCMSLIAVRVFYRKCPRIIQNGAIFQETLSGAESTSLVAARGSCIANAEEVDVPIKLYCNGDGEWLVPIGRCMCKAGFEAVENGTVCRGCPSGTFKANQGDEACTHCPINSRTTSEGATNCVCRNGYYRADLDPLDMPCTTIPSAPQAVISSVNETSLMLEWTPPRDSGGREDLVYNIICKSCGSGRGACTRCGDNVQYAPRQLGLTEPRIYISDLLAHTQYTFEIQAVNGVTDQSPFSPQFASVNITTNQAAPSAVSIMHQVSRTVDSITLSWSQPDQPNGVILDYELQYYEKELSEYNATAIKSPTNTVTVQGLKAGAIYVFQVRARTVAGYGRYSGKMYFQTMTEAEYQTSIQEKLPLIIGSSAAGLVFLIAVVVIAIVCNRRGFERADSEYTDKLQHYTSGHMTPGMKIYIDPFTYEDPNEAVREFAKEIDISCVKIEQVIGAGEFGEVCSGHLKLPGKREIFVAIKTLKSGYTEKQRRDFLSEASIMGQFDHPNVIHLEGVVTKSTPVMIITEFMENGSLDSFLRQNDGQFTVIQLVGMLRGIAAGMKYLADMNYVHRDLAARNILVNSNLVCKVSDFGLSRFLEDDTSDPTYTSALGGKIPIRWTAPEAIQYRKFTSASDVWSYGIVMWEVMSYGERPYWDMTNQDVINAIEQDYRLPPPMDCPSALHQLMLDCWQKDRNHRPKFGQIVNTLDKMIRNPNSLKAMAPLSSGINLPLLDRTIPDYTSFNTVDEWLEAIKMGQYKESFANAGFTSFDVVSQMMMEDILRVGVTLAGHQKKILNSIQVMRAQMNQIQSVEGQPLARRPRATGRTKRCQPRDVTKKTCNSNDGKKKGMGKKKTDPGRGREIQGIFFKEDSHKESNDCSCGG
MKNK1 (human), sequence (Q9BUB5 whole entry, looked up): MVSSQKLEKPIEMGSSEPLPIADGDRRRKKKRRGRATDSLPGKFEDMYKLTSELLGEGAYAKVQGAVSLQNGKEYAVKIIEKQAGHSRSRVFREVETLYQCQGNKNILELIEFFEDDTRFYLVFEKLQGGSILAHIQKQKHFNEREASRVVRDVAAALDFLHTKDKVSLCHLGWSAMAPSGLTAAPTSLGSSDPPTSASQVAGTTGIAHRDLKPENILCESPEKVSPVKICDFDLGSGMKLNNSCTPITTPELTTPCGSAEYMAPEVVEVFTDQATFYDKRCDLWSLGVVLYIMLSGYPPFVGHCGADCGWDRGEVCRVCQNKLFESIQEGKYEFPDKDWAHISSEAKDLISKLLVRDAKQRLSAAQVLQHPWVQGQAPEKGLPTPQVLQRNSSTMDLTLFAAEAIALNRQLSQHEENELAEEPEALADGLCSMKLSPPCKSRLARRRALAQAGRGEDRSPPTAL

SMILES: O=C(NOCC(O)CO)c1ccc(F)c(F)c1Nc1ccc(I)cc1Cl (stereo not drawn)
- residual activity (AURKB (human); compound 1.0 µM): 99%
- residual activity (AURKB (human); compound 10.0 µM): 78%
- residual activity (BRSK2 (human); compound 1.0 µM): 108%
- residual activity (BRSK2 (human); compound 10.0 µM): 105%
- residual activity (CAMKK2 (human); compound 1.0 µM): 108%
- residual activity (CAMKK2 (human); compound 10.0 µM): 103%
- residual activity (CHEK1 (human); compound 1.0 µM): 116%
- residual activity (CHEK1 (human); compound 10.0 µM): 119%
- residual activity (CLK2 (human); compound 1.0 µM): 94%
- residual activity (CLK2 (human); compound 10.0 µM): 91%
- residual activity (CSNK2A1 (human); compound 1.0 µM): 111%
- residual activity (CSNK2A1 (human); compound 10.0 µM): 98%
- residual activity (CaMK1 (human); compound 1.0 µM): 106%
- residual activity (CaMK1 (human); compound 10.0 µM): 84%
- residual activity (DAPK1 (human); compound 1.0 µM): 97%
- residual activity (DAPK1 (human); compound 10.0 µM): 98%
- residual activity (DYRK1A (human); compound 1.0 µM): 91%
- residual activity (DYRK1A (human); compound 10.0 µM): 85%
- residual activity (DYRK3 (human); compound 1.0 µM): 107%
- residual activity (DYRK3 (human); compound 10.0 µM): 83%
- residual activity (EPHB2 (human); compound 10.0 µM): 77%
- residual activity (GCK (human); compound 1.0 µM): 79%
- residual activity (GCK (human); compound 10.0 µM): 91%
- residual activity (HIPK1 (human); compound 1.0 µM): 96%
- residual activity (HIPK1 (human); compound 10.0 µM): 85%
- residual activity (HIPK2 (human); compound 1.0 µM): 102%
- residual activity (HIPK2 (human); compound 10.0 µM): 106%
- residual activity (IGF1R (human); compound 1.0 µM): 76%
- residual activity (IGF1R (human); compound 10.0 µM): 98%
- residual activity (JAK2 JH1 JH2 (human); compound 1.0 µM): 5%
- residual activity (JAK2 JH1 JH2 (human); compound 10.0 µM): 8%
- residual activity (LCK (mouse); compound 1.0 µM): 93%
- residual activity (LCK (mouse); compound 10.0 µM): 104%
- residual activity (MAPK10 (human); compound 1.0 µM): 83%
- residual activity (MAPK13 (human); compound 1.0 µM): 84%
- residual activity (MAPK13 (human); compound 10.0 µM): 97%
- residual activity (MAPK8 (human); compound 1.0 µM): 87%
- residual activity (MAPK8 (human); compound 10.0 µM): 93%
- residual activity (MAPKAPK5 (human); compound 1.0 µM): 93%
- residual activity (MAPKAPK5 (human); compound 10.0 µM): 100%
- residual activity (MARK3 (human); compound 1.0 µM): 73%
- residual activity (MARK3 (human); compound 10.0 µM): 88%
- residual activity (MINK1 (human); compound 1.0 µM): 119%
- residual activity (MINK1 (human); compound 10.0 µM): 127%
- residual activity (MKNK1 (human); compound 1.0 µM): 106%
- residual activity (MKNK1 (human); compound 10.0 µM): 95%
- residual activity ([1]; compound 1.0 µM): 95%
- residual activity ([1]; compound 10.0 µM): 80%
- residual activity (PHKG1 (human); compound 1.0 µM): 94%
- residual activity (PHKG1 (human); compound 10.0 µM): 90%
- residual activity (PIM3 (human); compound 1.0 µM): 94%
- residual activity (PIM3 (human); compound 10.0 µM): 65%
- residual activity (ROCK2 (rat); compound 1.0 µM): 102%
- residual activity (ROCK2 (rat); compound 10.0 µM): 103%
- residual activity ([2]; compound 1.0 µM): 71%
- residual activity ([2]; compound 10.0 µM): 111%
- residual activity (SRPK1 (human); compound 1.0 µM): 95%
- residual activity (SRPK1 (human); compound 10.0 µM): 86%
- residual activity (STK3 (human); compound 1.0 µM): 71%
- residual activity (STK3 (human); compound 10.0 µM): 75%
- residual activity (TBK1 (human); compound 1.0 µM): 111%
- residual activity (TBK1 (human); compound 10.0 µM): 99%
- residual activity (YES1 (human); compound 1.0 µM): 76%
- residual activity (YES1 (human); compound 10.0 µM): 79%

SMILES: Cc1cccc(-c2nn(C(=S)Nc3ccccc3)cc2-c2ccnc3ccccc23)n1
- residual activity (AURKB (human); compound 0.1 µM): 98%
- residual activity (AURKB (human); compound 1.0 µM): 102%
- residual activity (BRSK2 (human); compound 0.1 µM): 117%
- residual activity (BRSK2 (human); compound 1.0 µM): 92%
- residual activity (CAMKK2 (human); compound 0.1 µM): 100%
- residual activity (CAMKK2 (human); compound 1.0 µM): 104%
- residual activity (CHEK1 (human); compound 0.1 µM): 107%
- residual activity (CHEK1 (human); compound 1.0 µM): 105%
- residual activity (CLK2 (human); compound 0.1 µM): 106%
- residual activity (CLK2 (human); compound 1.0 µM): 98%
- residual activity (CSNK2A1 (human); compound 0.1 µM): 102%
- residual activity (CSNK2A1 (human); compound 1.0 µM): 104%
- residual activity (CaMK1 (human); compound 0.1 µM): 103%
- residual activity (CaMK1 (human); compound 1.0 µM): 107%
- residual activity (DAPK1 (human); compound 0.1 µM): 94%
- residual activity (DAPK1 (human); compound 1.0 µM): 90%
- residual activity (DYRK1A (human); compound 0.1 µM): 109%
- residual activity (DYRK1A (human); compound 1.0 µM): 104%
- residual activity (DYRK3 (human); compound 0.1 µM): 102%
- residual activity (DYRK3 (human); compound 1.0 µM): 93%
- residual activity (EPHB2 (human); compound 0.1 µM): 113%
- residual activity (EPHB2 (human); compound 1.0 µM): 95%
- residual activity (FGFR1 (human); compound 0.1 µM): 64%
- residual activity (FGFR1 (human); compound 1.0 µM): 37%
- residual activity (GCK (human); compound 0.1 µM): 98%
- residual activity (GCK (human); compound 1.0 µM): 68%
- residual activity (HIPK1 (human); compound 0.1 µM): 96%
- residual activity (HIPK1 (human); compound 1.0 µM): 98%
- residual activity (HIPK2 (human); compound 0.1 µM): 104%
- residual activity (HIPK2 (human); compound 1.0 µM): 95%
- residual activity (IGF1R (human); compound 0.1 µM): 97%
- residual activity (IGF1R (human); compound 1.0 µM): 103%
- residual activity (JAK2 JH1 JH2 (human); compound 0.1 µM): 107%
- residual activity (JAK2 JH1 JH2 (human); compound 1.0 µM): 93%
- residual activity (LCK (mouse); compound 0.1 µM): 105%
- residual activity (LCK (mouse); compound 1.0 µM): 62%
- residual activity (MAPK10 (human); compound 0.1 µM): 119%
- residual activity (MAPK10 (human); compound 1.0 µM): 99%
- residual activity (MAPK11 (human); compound 0.1 µM): 89%
- residual activity (MAPK11 (human); compound 1.0 µM): 61%
- residual activity (MAPK13 (human); compound 1.0 µM): 94%
- residual activity (MAPK8 (human); compound 0.1 µM): 111%
- residual activity (MAPK8 (human); compound 1.0 µM): 101%
- residual activity (MAPKAPK5 (human); compound 0.1 µM): 113%
- residual activity (MAPKAPK5 (human); compound 1.0 µM): 99%
- residual activity (MARK3 (human); compound 0.1 µM): 101%
- residual activity (MARK3 (human); compound 1.0 µM): 98%
- residual activity (MINK1 (human); compound 0.1 µM): 66%
- residual activity (MINK1 (human); compound 1.0 µM): 13%
- residual activity (MKNK1 (human); compound 0.1 µM): 103%
- residual activity (MKNK1 (human); compound 1.0 µM): 93%
- residual activity ([1]; compound 0.1 µM): 111%
- residual activity ([1]; compound 1.0 µM): 101%
- residual activity (PHKG1 (human); compound 0.1 µM): 100%
- residual activity (PHKG1 (human); compound 1.0 µM): 112%
- residual activity (PIM3 (human); compound 0.1 µM): 91%
- residual activity (PIM3 (human); compound 1.0 µM): 117%
- residual activity (ROCK2 (rat); compound 0.1 µM): 96%
- residual activity (ROCK2 (rat); compound 1.0 µM): 104%
- residual activity ([2]; compound 0.1 µM): 107%
- residual activity ([2]; compound 1.0 µM): 103%
- residual activity (SRPK1 (human); compound 0.1 µM): 101%
- residual activity (SRPK1 (human); compound 1.0 µM): 84%
- residual activity (STK3 (human); compound 0.1 µM): 107%
- residual activity (STK3 (human); compound 1.0 µM): 100%
- residual activity (TBK1 (human); compound 0.1 µM): 102%
- residual activity (TBK1 (human); compound 1.0 µM): 106%
- residual activity (YES1 (human); compound 0.1 µM): 106%
- residual activity (YES1 (human); compound 1.0 µM): 70%
